Our source for the IC50 values is BindingDB's records for PubMed 38171251 (Indian Institute of Technology (Banaras Hindu University)).

The structures appear in SMILES notation.

The nature of this assay: Inhibition of Acetyl-CoA acetyltransferase (unknown origin).
For the molecule `CC1CCC2(CC1)Nc1ccccc1N=C2NCc1ccccc1Cl` (stereo unspecified), the half-maximal inhibitory concentration (IC50) is 0.171 µM.

`CC1CCC2(CC1)NC=CN=C2NCc1ccccc1Cl` (stereo unspecified) returned a 50% inhibitory concentration (IC50) of over 1 µM.

Take `Cc1ccc(CNC2=Nc3ccccc3NC23CCCCC3)cc1`: the concentration for half-maximal inhibition (IC50) was found to be 0.269 µM.

`Clc1ccccc1CNC1=Nc2ccccc2NC12CCNCC2`: half-maximal inhibition (IC50) required 0.022 µM.

`Clc1cccc(CNC2=Nc3ccccc3NC23CCNCC3)c1` had an IC50 of 0.022 µM.

With `Cc1ccccc1CNC1=Nc2ccccc2NC12CCNCC2`, inhibition was half-maximal at 0.025 µM (IC50).
